According to PubChem BioAssay (NCI):
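All cell lines were grown in 96-well plates and treated with compound for 48 hours. The concentration for full growth arrest is given as TGI.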

Tests used:
Test in all cases: growth of human tumour cells (NCI), 48 h
UACC-62 melanoma = system: UACC-62 melanoma
U251 CNS = system: U251 CNS
NCI-H522 lung = system: NCI-H522 lung
MCF7 breast = system: MCF7 breast
HL-60(TB) leukemia = system: HL-60(TB) leukemia
SN12C renal = system: SN12C renal
OVCAR-8 ovarian = system: OVCAR-8 ovarian
SR leukemia = system: SR leukemia
HOP-92 NSCLC = system: HOP-92 NSCLC
SK-MEL-5 melanoma = system: SK-MEL-5 melanoma
RXF 393 renal = system: RXF 393 renal
CCRF-CEM leukemia = system: CCRF-CEM leukemia
MDA-N = system: MDA-N
SNB-75 CNS = system: SNB-75 CNS
TK-10 renal = system: TK-10 renal
RPMI-8226 leukemia = system: RPMI-8226 leukemia
SF-539 CNS = system: SF-539 CNS
HS 578T breast = system: HS 578T breast
COLO 205 colon = system: COLO 205 colon
MDA-MB-435 = system: MDA-MB-435
K-562 leukemia = system: K-562 leukemia
PC-3 prostate = system: PC-3 prostate
OVCAR-3 ovarian = system: OVCAR-3 ovarian
MALME-3M melanoma = system: MALME-3M melanoma
M14 melanoma = system: M14 melanoma
HCT-116 colon = system: HCT-116 colon
BT-549 breast = system: BT-549 breast
HT29 colon = system: HT29 colon
IGROV1 ovarian = system: IGROV1 ovarian
DU-145 prostate = system: DU-145 prostate
KM12 colon = system: KM12 colon
SF-268 CNS = system: SF-268 CNS
MOLT-4 leukemia = system: MOLT-4 leukemia
786-0 renal = system: 786-0 renal
OVCAR-4 ovarian = system: OVCAR-4 ovarian
OVCAR-5 ovarian = system: OVCAR-5 ovarian
EKVX NSCLC = system: EKVX NSCLC
NCI/ADR-RES ovarian = system: NCI/ADR-RES ovarian
SK-MEL-28 melanoma = system: SK-MEL-28 melanoma
NCI-H460 lung = system: NCI-H460 lung
LOX IMVI melanoma = system: LOX IMVI melanoma
CAKI-1 renal = system: CAKI-1 renal
ACHN renal = system: ACHN renal
SF-295 CNS = system: SF-295 CNS
NCI-H23 lung = system: NCI-H23 lung
SNB-19 CNS = system: SNB-19 CNS
NCI-H226 lung = system: NCI-H226 lung
MDA-MB-231 breast = system: MDA-MB-231 breast
SK-OV-3 ovarian = system: SK-OV-3 ovarian
SK-MEL-2 melanoma = system: SK-MEL-2 melanoma
HCT-15 colon = system: HCT-15 colon
T-47D breast = system: T-47D breast
UACC-257 melanoma = system: UACC-257 melanoma
A549 NSCLC = system: A549 NSCLC
SW-620 colon = system: SW-620 colon
HOP-62 NSCLC = system: HOP-62 NSCLC
UO-31 renal = system: UO-31 renal
A498 renal = system: A498 renal
HCC-2998 colon = system: HCC-2998 colon

Measured: TGI

COC(=O)c1cc(=O)nc2sc3cccc(C)c3n12
33.8 µM: LOX IMVI melanoma
> 100 µM: UACC-62 melanoma | U251 CNS | MCF7 breast | SN12C renal | SR leukemia | SK-MEL-5 melanoma | RXF 393 renal | CCRF-CEM leukemia | MDA-N | SNB-75 CNS | TK-10 renal | SF-539 CNS | HS 578T breast | MDA-MB-435 | K-562 leukemia | PC-3 prostate | M14 melanoma | HCT-116 colon | BT-549 breast | HT29 colon | IGROV1 ovarian | DU-145 prostate | KM12 colon | SF-268 CNS | MOLT-4 leukemia | OVCAR-4 ovarian | OVCAR-5 ovarian | EKVX NSCLC | NCI/ADR-RES ovarian | SK-MEL-28 melanoma | NCI-H460 lung | SF-295 CNS | NCI-H23 lung | SNB-19 CNS | NCI-H226 lung | MDA-MB-231 breast | SK-OV-3 ovarian | HCT-15 colon | T-47D breast | UACC-257 melanoma | A549 NSCLC | SW-620 colon | HOP-62 NSCLC
61 µM: CAKI-1 renal
67.9 µM: RPMI-8226 leukemia
69.1 µM: HOP-92 NSCLC
62.6 µM: HL-60(TB) leukemia
29.8 µM: COLO 205 colon
48.3 µM: NCI-H522 lung
82.8 µM: OVCAR-3 ovarian
47.3 µM: 786-0 renal
82.5 µM: SK-MEL-2 melanoma
70.1 µM: MALME-3M melanoma
49.2 µM: OVCAR-8 ovarian
42.8 µM: ACHN renal

COc1ccc(N/N=C2\CCOc3ccc(C)cc3C2=O)cc1
97.5 µM: HCC-2998 colon
54.6 µM: UACC-257 melanoma
66 µM: U251 CNS
50.6 µM: SK-MEL-5 melanoma
15.4 µM: MDA-MB-435
80.2 µM: SK-OV-3 ovarian
48.7 µM: HCT-15 colon
30.9 µM: LOX IMVI melanoma
90.7 µM: NCI-H226 lung
53.7 µM: NCI-H460 lung
87.5 µM: BT-549 breast
41.8 µM: 786-0 renal
46 µM: SK-MEL-2 melanoma
22.3 µM: MDA-N
> 100 µM: NCI-H522 lung | MCF7 breast | HL-60(TB) leukemia | SN12C renal | OVCAR-8 ovarian | SR leukemia | UO-31 renal | HOP-92 NSCLC | CCRF-CEM leukemia | TK-10 renal | SF-539 CNS | HS 578T breast | COLO 205 colon | K-562 leukemia | PC-3 prostate | A498 renal | OVCAR-3 ovarian | M14 melanoma | HCT-116 colon | IGROV1 ovarian | DU-145 prostate | KM12 colon | SF-268 CNS | OVCAR-4 ovarian | OVCAR-5 ovarian | EKVX NSCLC | NCI/ADR-RES ovarian | SK-MEL-28 melanoma | CAKI-1 renal | ACHN renal | SF-295 CNS | SNB-19 CNS | MDA-MB-231 breast | A549 NSCLC | SW-620 colon | HOP-62 NSCLC
85.4 µM: MOLT-4 leukemia
80.4 µM: UACC-62 melanoma
61.1 µM: HT29 colon
84.1 µM: RPMI-8226 leukemia
38.7 µM: MALME-3M melanoma
42.4 µM: T-47D breast
